# Measurements as given in patent US9402875B2, “Amidated dopamine neuron stimulating peptide restoration of mitochondrial activity” (University of Kentucky Research Foundation, priority 2006, dated 2016).
# Entries after “also recorded” stand apart in the source; their conditions may differ. Ends that are not written are not given here.
# Assays:
# MN9D cells [1] = assay: JC-1 mitochondrial membrane potential assay; format: cell-based
# Method: (§1) MN9D cells and B65 cells were cultured in Dulbecco's Modified Eagle's Medium (DMEM; 11995 (containing pyridoxol HCl); Sigma, St. Louis, Mo.) supplemented with 10% fetal bovine serum (HyClone, Logan, Utah), 50 U/mL penicillin and streptomycin. For each assay the cells were treated with mitochondrial-specific environmental toxins, i.e., MPP+, rotenone, and/or TaClo, and with or without DNSP-11. After incubation with the toxins, the cells were plated on 24-well poly-D-lysine plates (50,000 cells/well) for TUNEL assay (as described below) or 100,000 cell/well for caspase-3 assay in DMEM medium with 1% (v/v) penicillin-streptomycin only (as described below).
# (§2) MN9D and B65 cells were treated with either 50 nM, 100 nM, 250 nM, 500 nM, 2.5 μM or 5 μM rotenone, 50 nM, 100 nM, 250 nM 1-methyl-4-phenylpyridinium (MPP+), or 10 μM , 25 μM, 50 μM, 100 μM, 150 μM or […]-1,2,3,4-tetrahydro-β-carboline (TaClo), for 1 to 12 hours and then incubated at 37° C. in 5% CO2 following pretreatment (1 to 30 minutes) with or without 100 nM or 10 nM DNSP-11. After treatment with rotenone, MPP+ or TaClo and incubation with DNSP-11, the cells were incubated for 30 minutes at 37° C. in a 5% CO2 incubator in the presence of 10 μM of the green fluorescent JC-1 (5,5′, 6,6′-tetrachloro-1,1′,3,3′-tetraethylbenzimidazolyl-cabo-cyanine iodine, T-3168 (Invitrogen)) and then washed in Locke's solution. Optical measurements were acquired with excitation at 485 nm and emission at 527 nm, and 590 nm. The levels of fluorescence at each emission wavelengths were quantified and ratio of measurements was assessed. The pertinent data are given as mean±S.E.M. for mean optical measurements. The values are expressed as percent of the mean control values ±S.E.M. and analyzed using ANOVA.
# B65 cells = assay: JC-1 mitochondrial membrane potential assay; format: cell-based
# Method: as §1, §2
# [2] = system: unilateral 6-OHDA-lesioned rats; assay: Neurochemical content of tissue (HPLC-EC); format: in vivo, rat; details: 5 weeks after infusion
# Method: Unilateral 6-OHDA Lesions: The 6-OHDA solution was delivered to two injection sites along the medial forebrain bundle (MFB) using a protocol described by Lundblad et al. (2002) Eur. J. Neurosci. 15:120-132. Five weeks after the unilateral 6-OHDA MFB lesion procedure, animals were grouped based on apomorphine (0.05 mg/kg, s.c.)-induced rotational behaviour: Animals with >300 rotations per 60 minutes were selected. Lesioned animals received 5 vit of either a 20 μg/vd, DNSP-11 solution or citrate buffer vehicle solution in a manner similar to infusion delivery in normal animals.
# Neurochemical Content of Tissue: Lesioned animals were euthanized 5 weeks after DNSP-11 or vehicle infusion. The brains were sliced into 1 mm thick sections. […]
# The in vitro studies and in vivo measures of the effects of DNSP-11 led to an investigation of the potential neurorestorative properties of DNSP-11 to damaged dopamine neurons in a unilateral rat model of PD. […] At 5 weeks, the substantia nigra and striatum from each rat was analyzed by high performance liquid chromatography coupled with electrochemical detection.
# Rats were tested 3-4 weeks after the injection of 6-OHDA using low-dose (0.05 mg/kg, i.p.) apomorphine to induce rotational behavior. […] At 5 weeks, the substantia nigra and striatum from each rat was analyzed by high performance liquid chromatography coupled with electrochemical detection.
# MN9D cells [3] = assay: Oxygen consumption rate (Seahorse XF-24); format: cell-based
# Method: Real-time measurement of oxygen consumption rate (OCR) of intact DNSP-11-treated MN9D cells, in the presence and absence of Complex I toxins, rotenone 1-5 ηM or TaClo 100-150 μM, were performed utilizing the Seahorse XF-24 extracellular flux analyzer. This instrument allows the simultaneous measurement of the mitochondrial bioenergetics from […] cell culture samples, without the mitochondrial isolation (and thus higher quantities of sample) needed for the standard (lower throughput) Clark-type electrode chamber. Details regarding the methods used for the Seahorse analysis were recently described in detail (Sauerbeck et al., Journal of Neuroscience Methods 198:36-43 (2011) incorporated herein by reference).
# Briefly, following sensor preparation, calibration, and dose optimization, the basal and maximal oxygen consumption rates (OCR) were measured in intact MN9D neuronal cells in the absence and presence of 1 μM DNSP-11. […] Following electron transport chain uncoupling by 100 nM FCCP to measure the maximal OCR, treatment of MN9D neurons with DNSP-11 had nearly a 60% increase (p<0.001) versus control.
# [4] = MPP+, rotenone or TaClo 1 to 12 hours, pretreatment with 10 nM or 100 nM DNSP-11
substance,measurement,setting,value
"PPEAPAEDRSL-NH2 [DNSP-11, PPEAPAEDRSL-amide]","mitochondrial potential, protection from toxins",MN9D cells [1]; [4],protects the cells; also recorded: significant protection
same,"mitochondrial potential, DNSP-11 alone",MN9D cells [1]; no toxin,no significant effect
same,"mitochondrial potential, protection from toxins",B65 cells; [4],protects the cells; also recorded: significant protection
same,"mitochondrial potential, DNSP-11 alone",B65 cells; no toxin,no significant effect
same,"DOPAC tissue content, substantia nigra",[2]; vehicle 7.10±1.40 ng/g,16.48 ± 4.01 ng/g
same,"DA content, substantia nigra",[2]; vehicle 34.7±6.4 ng/g,59.1 ± 7.3 ng/g
same,"basal and maximal OCRs, protection from rotenone","MN9D cells [3]; 1 nM, 2.5 nM and 5 nM rotenone",protection
same,basal OCR vs control treatment,MN9D cells [3]; 1 μM DNSP-11,no significant effect
same,reserve respiratory capacity (ratio maximal/basal OCR),MN9D cells [3]; 1 μM DNSP-11,significantly increases
same,"maximal OCR, increase versus control","MN9D cells [3]; 1 μM DNSP-11, uncoupling by 100 nM FCCP, p<0.001",~60%
same,"basal and maximal OCRs, protection from TaClo",MN9D cells [3]; 100 μM and 150 μM TaClo,protection
